Data published in patent publication US20080293583A1, “Methods for diagnosing mood disorders” (Wyeth, priority 2003, published 2008).

Key:
Format in all cases: in vivo
[1] = test system: Dihydropyrimidinase Related Protein-2 (DRP-2; CRMP-2; TOAD-64); experiment: 2-DE proteome analysis of rat hippocampus: DRP-2/CRMP-2; settings: rat hippocampus cytosolic extract, 10 mg/kg i.p. daily 14 days, vs control; gel spot 1
Experimental: (§1) Animal dosing. Adult male Sprague Dawley rats weighing 230-320 g were housed with ad libitum access to food and water. After 1 week of habituation, rats were administered either an antidepressant or vehicle alone. The following drugs were administered intraperitoneally (i.p.): fluoxetine (10 mg/kg daily), venlafaxine (10 mg/kg daily) or vehicle alone (1 ml/kg normal saline daily) for 14 days (n=3 rats per group).
(§2) Sample preparation and cytosolic protein extraction. The animals were euthanized and hippocampi were rapidly dissected from the whole brain. Samples from each treatment group were pooled and stored at −85° C. Cytosolic extracts were prepared using the universal extraction kit from Sigma (prot-two) as follows: soluble cytoplasmic extraction reagent (S2688) was added to the hippocampal tissue (10 ml/250 mg wet weight). […]
(§3) Two-dimensional gel electrophoresis. […] Molecular masses were determined by running standard protein markers (Genomic Solutions Inc.), covering the range 10-200 kDa as well as internal verification via landmark proteins within the gel. […]
(§4) Protein fixation, silver staining and 2-D gel comparisons. […] Protein spots were outlined (first automatically and then manually) and quantified using the HT analyzer v2.2 software (Genomic Solutions Inc.). The software calculated the relative spot volume of the proteins compared with the total amount of protein in the gel. […]

[2] = test system: PCTAIRE-3 (Serine/Threonine-Protein Kinase); experiment: 2-DE proteome analysis of rat hippocampus: PCTAIRE-3; settings: rat hippocampus cytosolic extract, 10 mg/kg i.p. daily 14 days, vs control; gel spot 6
Experimental: as §1, §2, §3, §4

[3] = test system: Serine Protease Inhibitor 2.1 (SPI-2.1); experiment: 2-DE proteome analysis of rat hippocampus: SPI-2.1; settings: rat hippocampus cytosolic extract, 10 mg/kg i.p. daily 14 days, vs control; gel spot 62
Experimental: as §1, §2, §3, §4

[4] = test system: NG, NG-Dimethylarginine Dimethylaminohydrolase 1 (DDAH1); experiment: 2-DE proteome analysis of rat hippocampus: DDAH1; settings: rat hippocampus cytosolic extract, 10 mg/kg i.p. daily 14 days, vs control; gel spot 18
Experimental: as §1, §2, §3, §4

[5] = test system: Pyruvate Dehydrogenase E1 component beta subunit, mitochondrial (precursor); experiment: 2-DE proteome analysis of rat hippocampus: Pyruvate Dehydrogenase E1 beta; settings: rat hippocampus cytosolic extract, 10 mg/kg i.p. daily 14 days, vs control; gel spot 26
Experimental: as §1, §2, §3, §4

[6] = test system: 10 KD heat shock protein, mitochondrial (Hsp10); experiment: 2-DE proteome analysis of rat hippocampus: Hsp10; settings: rat hippocampus cytosolic extract, 10 mg/kg i.p. daily 14 days, vs control; gel spot 83
Experimental: as §1, §2, §3, §4

[7] = test system: Myelin Basic Protein S (MBP S); experiment: 2-DE proteome analysis of rat hippocampus: MBP S; settings: rat hippocampus cytosolic extract, 10 mg/kg i.p. daily 14 days, vs control; gel spot 64
Experimental: as §1, §2, §3, §4

[8] = test system: Lymphotactin [precursor] (Cytokine SCM-1; Small inducible cytokine C1); experiment: 2-DE proteome analysis of rat hippocampus: Lymphotactin; settings: rat hippocampus cytosolic extract, 10 mg/kg i.p. daily 14 days, vs control; gel spot 80
Experimental: as §1, §2, §3, §4

D-dopachrome tautomerase = experiment: 2-DE proteome analysis of rat hippocampus: D-dopachrome tautomerase; settings: rat hippocampus cytosolic extract, 10 mg/kg i.p. daily 14 days, vs control; gel spot 93
Experimental: as §1, §2, §3, §4

[9] = test system: Adenine Phosphoribosyltransferase (APRT); experiment: 2-DE proteome analysis of rat hippocampus: APRT; settings: rat hippocampus cytosolic extract, 10 mg/kg i.p. daily 14 days, vs control; gel spot 57
Experimental: as §1, §2, §3, §4

[10] = test system: Glutathione S-Transferase Yb3; experiment: 2-DE proteome analysis of rat hippocampus: Glutathione S-Transferase Yb3; settings: rat hippocampus cytosolic extract, 10 mg/kg i.p. daily 14 days, vs control; gel spot 56
Experimental: as §1, §2, §3, §4

[11] = test system: 60S Ribosomal Protein L18A; experiment: 2-DE proteome analysis of rat hippocampus: Ribosomal Protein L18A; settings: rat hippocampus cytosolic extract, 10 mg/kg i.p. daily 14 days, vs control; gel spot 58
Experimental: as §1, §2, §3, §4

[12] = test system: 60S Ribosomal Protein L35A; experiment: 2-DE proteome analysis of rat hippocampus: Ribosomal Protein L35A; settings: rat hippocampus cytosolic extract, 10 mg/kg i.p. daily 14 days, vs control; gel spot 92
Experimental: as §1, §2, §3, §4

[13] = test system: 61 S Ribosomal protein L28; experiment: 2-DE proteome analysis of rat hippocampus: Ribosomal protein L28; settings: rat hippocampus cytosolic extract, 10 mg/kg i.p. daily 14 days, vs control; gel spot 66
Experimental: as §1, §2, §3, §4

Compound	Fold change, Dihydropyrimidinase Related Protein-2 (DRP-2; CRMP-2; TOAD-64) [1] [Fold change]	Fold change, PCTAIRE-3 [2] [Fold change]	Fold change, Serine Protease Inhibitor 2.1 (SPI-2.1) [3] [Fold change]	Fold change, NG, NG-Dimethylarginine Dimethylaminohydrolase 1 (DDAH1) [4] [Fold change]	Fold change, Pyruvate Dehydrogenase E1 component beta subunit [5] [Fold change]	Fold change, 10 KD heat shock protein, mitochondrial (Hsp10) [6] [Fold change]	Fold change, Myelin Basic Protein S (MBP S) [7] [Fold change]	Fold change, Lymphotactin [precursor] [8] [Fold change]	Fold change, D-dopachrome tautomerase (D-dopachrome tautomerase) [Fold change]	Fold change, Adenine Phosphoribosyltransferase (APRT) [9] [Fold change]	Fold change, Glutathione S-Transferase Yb3 [10] [Fold change]	Fold change, 60S Ribosomal Protein L18A [11] [Fold change]	Fold change, 60S Ribosomal Protein L35A [12] [Fold change]	Fold change, 61 S Ribosomal protein L28 [13] [Fold change]
CNCCC(Oc1ccc(C(F)(F)F)cc1)c1ccccc1 (stereo not shown) [Fluoxetine, fluoxetine]	2.6	1.5	2.9	1.6	3.2	2.3	3.1	2	2.2	5.8	0.5	1.8	2.2	0.7
COc1ccc(C(CN(C)C)C2(O)CCCCC2)cc1 (stereo not shown) [Venlafaxine, venlafaxine]	4.1	1.5	1.9	2.2	2.6	3.8	3.7	1.9	2.3	3	0.5	2.9	2.5	0.6
